Data set [1] is described as follows: Inhibition of KA-induced cytotoxicity in human hippocampal cell culture. The data set is classed as toxicity, cell-based. To be noted: Hippocampal neurone.
Data set [2] deals with T1, Glutamate receptor ionotropic AMPA (Homo sapiens, UniProt P42261+P42262+P42263+P48058). In words: Displacement of [3H]AMPA from AMPA receptor (unknown origin). Format: protein-complex assay.
Data set [3] can be described thus: Displacement of [3H]AMPA from NMDA receptor (unknown origin). Format: protein-complex assay, Homo sapiens.
Data set [4] addresses Glutamate [NMDA] receptor. In words: Displacement of [3H]MDL from NMDA receptor (unknown origin). Format: protein-complex assay, Homo sapiens.
Data set [5] has as its target T1, Glutamate receptor ionotropic AMPA. In words: Displacement of [3H]CNQX from AMPA receptor (unknown origin). Format: protein-complex assay.
Data set [6] has the same target. In words: Displacement of [3H]kainic acid from AMPA receptor (unknown origin). Format: protein-complex assay.
The subject of another data set is HeLa. The data set can be described thus: Antiproliferative activity against human HeLa cells. Format: functional, cell-based.
The next data set has as its system MCF7. In words: Antiproliferative activity against human MCF7 cells. Format: functional, cell-based.
A further data set deals with K562. In words: Antiproliferative activity against human K562 cells. The data set is classed as functional, cell-based.
Data set [7] can be described thus: Antiproliferative activity against human 3AO cells. The data set is classed as functional, cell-based.
The test system of a further data set is BEAS-2B. In words: Antiproliferative activity against human BEAS-2B cells. The data set is classed as functional, cell-based.
Data set [8] deals with Vascular endothelial growth factor receptor 2 (Homo sapiens, UniProt P35968). The data set can be described thus: Inhibition of VEGFR2 (unknown origin) at 1 uM relative to control.
Sequence of Vascular endothelial growth factor receptor 2 (P35968 whole entry): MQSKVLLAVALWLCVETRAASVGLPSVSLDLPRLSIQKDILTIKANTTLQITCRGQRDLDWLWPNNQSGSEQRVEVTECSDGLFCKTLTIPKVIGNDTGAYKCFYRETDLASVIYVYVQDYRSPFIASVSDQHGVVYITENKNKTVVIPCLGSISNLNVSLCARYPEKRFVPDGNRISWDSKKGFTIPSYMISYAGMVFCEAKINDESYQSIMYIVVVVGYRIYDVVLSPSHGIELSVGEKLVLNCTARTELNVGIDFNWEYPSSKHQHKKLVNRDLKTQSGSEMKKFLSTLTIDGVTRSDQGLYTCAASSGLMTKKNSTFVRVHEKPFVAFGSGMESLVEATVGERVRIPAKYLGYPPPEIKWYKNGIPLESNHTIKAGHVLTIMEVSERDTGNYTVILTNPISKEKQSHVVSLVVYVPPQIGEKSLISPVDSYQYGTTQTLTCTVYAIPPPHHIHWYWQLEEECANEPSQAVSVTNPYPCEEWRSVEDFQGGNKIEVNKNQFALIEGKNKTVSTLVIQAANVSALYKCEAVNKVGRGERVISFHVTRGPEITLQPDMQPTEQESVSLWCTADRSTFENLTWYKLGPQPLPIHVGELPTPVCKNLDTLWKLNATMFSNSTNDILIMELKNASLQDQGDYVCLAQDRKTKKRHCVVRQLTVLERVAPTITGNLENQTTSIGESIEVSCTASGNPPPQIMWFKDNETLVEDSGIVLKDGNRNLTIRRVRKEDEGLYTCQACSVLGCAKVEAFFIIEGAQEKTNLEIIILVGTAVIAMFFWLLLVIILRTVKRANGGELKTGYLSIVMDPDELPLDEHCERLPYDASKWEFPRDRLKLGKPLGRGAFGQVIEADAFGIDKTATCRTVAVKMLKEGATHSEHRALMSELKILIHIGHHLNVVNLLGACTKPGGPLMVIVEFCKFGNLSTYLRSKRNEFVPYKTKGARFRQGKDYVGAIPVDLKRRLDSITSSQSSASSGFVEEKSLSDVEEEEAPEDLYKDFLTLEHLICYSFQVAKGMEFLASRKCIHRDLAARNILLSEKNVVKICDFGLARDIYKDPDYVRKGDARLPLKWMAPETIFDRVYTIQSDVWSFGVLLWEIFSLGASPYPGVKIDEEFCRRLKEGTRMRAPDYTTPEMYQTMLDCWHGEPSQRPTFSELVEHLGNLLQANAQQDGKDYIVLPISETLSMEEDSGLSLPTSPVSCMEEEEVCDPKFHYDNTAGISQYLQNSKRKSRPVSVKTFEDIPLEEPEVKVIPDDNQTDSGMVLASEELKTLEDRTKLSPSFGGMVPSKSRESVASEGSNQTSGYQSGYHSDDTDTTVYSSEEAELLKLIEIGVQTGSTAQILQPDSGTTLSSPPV
The subject of another data set is PC-3. In words: Antiproliferative activity against human PC-3 cells. Format: functional, cell-based.
The target of data set [9] is Epidermal growth factor receptor (Homo sapiens, UniProt P00533). The data set can be described thus: Inhibition of wild-type EGFR (unknown origin).
Sequence of Epidermal growth factor receptor (Homo sapiens, UniProt P00533) (P00533 whole entry): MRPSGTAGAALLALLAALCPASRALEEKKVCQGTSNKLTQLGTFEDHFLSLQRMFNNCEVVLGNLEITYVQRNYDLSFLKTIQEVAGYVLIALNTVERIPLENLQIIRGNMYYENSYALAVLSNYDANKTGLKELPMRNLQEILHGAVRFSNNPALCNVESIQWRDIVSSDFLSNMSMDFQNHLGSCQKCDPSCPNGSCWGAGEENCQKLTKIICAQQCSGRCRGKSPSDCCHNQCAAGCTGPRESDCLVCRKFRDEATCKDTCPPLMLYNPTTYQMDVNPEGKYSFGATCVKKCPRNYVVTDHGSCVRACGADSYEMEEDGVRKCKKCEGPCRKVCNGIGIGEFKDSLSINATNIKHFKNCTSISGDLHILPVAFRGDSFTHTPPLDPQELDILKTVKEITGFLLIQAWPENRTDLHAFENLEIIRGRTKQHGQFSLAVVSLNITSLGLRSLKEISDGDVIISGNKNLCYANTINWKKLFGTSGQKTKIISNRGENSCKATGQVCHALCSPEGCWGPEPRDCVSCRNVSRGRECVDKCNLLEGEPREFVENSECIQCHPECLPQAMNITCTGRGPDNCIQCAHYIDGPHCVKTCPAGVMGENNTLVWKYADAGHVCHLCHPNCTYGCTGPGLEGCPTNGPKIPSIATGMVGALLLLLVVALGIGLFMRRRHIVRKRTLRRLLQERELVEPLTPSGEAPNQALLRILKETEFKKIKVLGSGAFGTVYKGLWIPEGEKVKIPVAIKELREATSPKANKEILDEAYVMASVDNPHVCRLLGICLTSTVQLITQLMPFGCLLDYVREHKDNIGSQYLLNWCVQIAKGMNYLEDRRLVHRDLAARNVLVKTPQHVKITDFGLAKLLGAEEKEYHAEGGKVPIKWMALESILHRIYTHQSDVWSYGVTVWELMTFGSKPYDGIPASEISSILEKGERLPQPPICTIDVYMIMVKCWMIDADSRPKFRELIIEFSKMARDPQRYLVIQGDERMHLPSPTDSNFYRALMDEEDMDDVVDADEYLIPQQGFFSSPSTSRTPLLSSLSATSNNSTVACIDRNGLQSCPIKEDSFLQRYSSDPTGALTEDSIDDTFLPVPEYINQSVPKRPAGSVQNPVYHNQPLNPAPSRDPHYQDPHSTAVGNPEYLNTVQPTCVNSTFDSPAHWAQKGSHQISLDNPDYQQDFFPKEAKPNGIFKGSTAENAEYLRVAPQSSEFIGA
The test system of a further data set is HCT-116. The data set can be described thus: Antiproliferative activity against human HCT-116 cells. The data set is classed as functional, cell-based.
Data set [10] concerns the target Epidermal growth factor receptor (Homo sapiens, UniProt P00533, L858R). The data set can be described thus: Inhibition of EGFR L858R mutant (unknown origin).
In the next data set the test system is HepG2. The data set can be described thus: Antiproliferative activity against human HepG2 cells. The data set is classed as functional, cell-based.
A further data set relates to WI-38. In words: Antiproliferative activity against human WI-38 cells. The data set is classed as functional, cell-based.
The next data set has as its system Staphylococcus aureus. The data set can be described thus: Antibacterial activity against Staphylococcus aureus. Format: functional.
Data set [11] in a line: Cytotoxicity against mock-infected human MT4 cells. The data set is classed as toxicity, cell-based.
In data set [12] the target is Bromodomain-containing protein 4 (Homo sapiens, UniProt O60885). The data set can be described thus: Inhibition of BRD4 (unknown origin) using histone-H4 as substrate incubated for 15 mins and measured after 1 hr by AlphaScreen assay.
The subject of a further data set is Salmonella typhimurium. In words: Antibacterial activity against Salmonella typhimurium assessed as diameter zone of inhibition. The data set is classed as functional, Salmonella enterica subsp. enterica serovar Typhimurium.
A further data set deals with Escherichia coli. In words: Antibacterial activity against Escherichia coli assessed as diameter zone of inhibition. Format: functional.
For data set [13], the target named is Glutamate [NMDA] receptor. The data set can be described thus: Displacement of [3H]MK-801 from NMDA receptor (unknown origin). Format: protein-complex assay, Homo sapiens.
A short description of data set [14]: Displacement of [3H]glycine from AMPA receptor (unknown origin). The data set is classed as protein-complex assay, Homo sapiens.
Data set [15] addresses Glutamate [NMDA] receptor. In words: Antagonist activity at NMDA receptor (unknown origin) assessed as NMDA-induced depolarizations. The data set is classed as protein-complex assay, Homo sapiens.
Data set [16] has as its target T1, Glutamate receptor ionotropic AMPA. In words: Antagonist activity at AMPA receptor (unknown origin) assessed as AMPA-induced depolarizations. Format: protein-complex assay.

In brackets after ≈: the same amount, converted by molar mass. Bounds are passed on as bounds.

This is an account of results in ChEMBL document CHEMBL5113380, “Functionalized quinoxalinones as privileged structures with broad-ranging pharmacological activities” (Eur J Med Chem, 2022).

Sequence of Epidermal growth factor receptor (Homo sapiens, UniProt P00533, L858R) (P00533 25-1210 L858R limits assumed): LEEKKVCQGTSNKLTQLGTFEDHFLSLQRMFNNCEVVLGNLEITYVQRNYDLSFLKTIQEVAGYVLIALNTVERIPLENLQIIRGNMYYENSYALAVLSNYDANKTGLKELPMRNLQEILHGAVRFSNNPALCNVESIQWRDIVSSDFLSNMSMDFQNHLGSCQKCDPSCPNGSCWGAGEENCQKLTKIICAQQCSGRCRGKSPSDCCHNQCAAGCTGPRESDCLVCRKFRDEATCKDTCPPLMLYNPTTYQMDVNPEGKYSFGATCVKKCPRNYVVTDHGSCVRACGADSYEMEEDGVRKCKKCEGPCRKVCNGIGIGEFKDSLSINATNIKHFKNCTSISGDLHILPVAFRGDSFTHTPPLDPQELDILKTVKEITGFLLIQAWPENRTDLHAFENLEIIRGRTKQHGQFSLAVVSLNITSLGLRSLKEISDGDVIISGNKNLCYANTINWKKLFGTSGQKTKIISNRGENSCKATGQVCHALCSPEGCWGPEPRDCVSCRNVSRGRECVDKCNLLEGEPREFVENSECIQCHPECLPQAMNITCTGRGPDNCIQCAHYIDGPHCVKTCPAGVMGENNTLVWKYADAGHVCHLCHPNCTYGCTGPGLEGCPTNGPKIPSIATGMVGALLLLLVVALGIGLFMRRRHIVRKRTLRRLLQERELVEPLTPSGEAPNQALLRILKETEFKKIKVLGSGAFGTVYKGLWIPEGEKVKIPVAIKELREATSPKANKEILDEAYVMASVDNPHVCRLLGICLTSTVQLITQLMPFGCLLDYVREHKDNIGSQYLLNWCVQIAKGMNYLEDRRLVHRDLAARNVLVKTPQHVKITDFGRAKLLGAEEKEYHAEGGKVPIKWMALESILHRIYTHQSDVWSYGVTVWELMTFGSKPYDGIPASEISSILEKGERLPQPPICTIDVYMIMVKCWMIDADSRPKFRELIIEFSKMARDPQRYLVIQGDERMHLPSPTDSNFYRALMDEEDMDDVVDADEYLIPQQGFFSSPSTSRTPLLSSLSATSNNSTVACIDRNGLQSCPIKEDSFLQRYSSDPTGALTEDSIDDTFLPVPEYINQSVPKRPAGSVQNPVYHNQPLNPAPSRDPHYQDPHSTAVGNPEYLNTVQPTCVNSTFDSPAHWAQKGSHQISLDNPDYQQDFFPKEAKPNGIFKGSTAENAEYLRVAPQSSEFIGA

In data set [1], `CCc1cnc2c(=O)[nH]c3cc([N+](=O)[O-])c(-n4ccnc4)nc3n12` showed an IC50 of 300 nM. In addition, the Ki in [2] was 20 nM.
With `O=C(Cc1ccsc1)NCc1cc(Br)cc2nc(O)c(O)nc12`, the values for the IC50 in [3] and in [4] were 11.3 µM and 10 nM, respectively.
As for `O=c1[nH]c2cc(CO)c(CO)cc2[nH]c1=O`, the IC50 was 9.2 µM in data set [5], above 100 µM in [6] and 9.3 µM in data set [2].
Regarding `O=C(Cn1c(=O)c(/C=C/c2ccncc2)nc2ccccc21)Nc1ccc(Cl)cc1`, the IC50 in the data set with HeLa was above 100 µM; with MCF7, above 100 µM; in the data set with K562, 50.4 µM; in data set [7] it was above 100 µM; in the data set with BEAS-2B it was above 100 µM; in the data set with PC-3 it was above 100 µM. In data set [8], the inhibition worked out at 44%.
On to `COC(=O)CCc1nc2ccc(Cl)cc2[nH]c1=O`, for which the IC50 was found to be 1340 nM in data set [9]; 23.3 µM in the data set on MCF7; 31.6 µM in the data set on HCT-116; 82.8 nM in data set [10]; 46.2 µM in the data set on HepG2; 242 µM with WI-38.
In the case of `O=c1[nH]c2cc([N+](=O)[O-])c([N+](=O)[O-])cc2[nH]c1=O` [DNQX], the IC50 came to 1.4 µM in data set [5], 2.2 µM in data set [6] and 0.93 µM in data set [2].
Consider `O=c1[nH]c2ccc(Cl)c(Cl)c2nc1C(F)(F)F`, for which, in the data set on Staphylococcus aureus, the MBC worked out at 200 µM (≈ 56.6 µg/mL) and it took 33 µM (≈ 9.34 µg/mL) to inhibit growth (MIC). The same molecule showed a CC50 in [11] of 108 µM.
In turn, `Cc1noc(C)c1-c1ccc2c(c1)C(Cc1ccccc1)NC(=O)N2C` (stereo not given) had an IC50 in data set [12] of 32 nM.
`COC(=O)CCc1nc2ccc(Br)cc2[nH]c1=O`: the IC50 in data set [9] amounted to 957 nM; in the data set on MCF7 it was 17.9 µM; in the data set on HCT-116 it was 13.8 µM; in [10] it was 75.4 nM; in the data set with HepG2 it was 15.6 µM; with WI-38, 142 µM.
`O=C1CN(C(=O)CNc2cccc(Cl)c2)c2ccccc2N1`: the “diameter of the inhibition zone (DIZ)” value in the data set on Salmonella typhimurium and with Escherichia coli was 9 mm in each case.
Turning to `NNC(=O)/C=C1/Nc2ccc(Br)cc2NC1=O`, the IC50 in data set [9] worked out at 1550 nM; with MCF7, 16.9 µM; in the data set with HCT-116 it was 28.4 µM; in data set [10] it was 87.3 nM; in the data set on HepG2 it was 18.6 µM; with WI-38, 227 µM.
Take `COc1ccc2[nH]c(=O)c(CBr)nc2c1Cl`: in [11], the midpoint of cytotoxicity, the CC50, lay at 21 µM.
Take `O=Cc1ccn(-c2cc3c(cc2Cl)nc(O)c2nc(C(=O)O)nn23)c1`: the IC50 worked out at 43 µM in data set [13], 23 µM in data set [15], 1200 nM in data set [16] and 8.9 µM in [6]. Further, the Ki in [14] was found to be 28 µM; in data set [2], 530 nM.
With `O=C(Cn1c(=O)c(/C=C/c2ccncc2)nc2ccccc21)Nc1ccc(Cl)c(Cl)c1`, the IC50 was above 100 µM in the data set on HeLa; 47.6 µM in the data set on MCF7; above 100 µM in the data set on K562; above 100 µM in data set [7]; above 100 µM in the data set with BEAS-2B; above 100 µM in the data set with PC-3. Further, the inhibition in data set [8] turned out to be 56%.
